What is called IC50 is the midpoint of a concentration-inhibition curve.

Common to all, as to type: cell-based
The test system of assay [1] is Aβ42. Put plainly: Method 1: Aβ42 sandwich ELISA on media of SKNBE2 cells carrying APP 695 wild type (γ-secretase-modulating activity). As to conditions: SKNBE2 cells APP 695 wild type, 18 hours. The procedure:
(§1) Screening was carried out using SKNBE2 cells carrying the APP 695—wild type, grown in Dulbecco's Modified Eagle's Medium/Nutrient mixture F-12 (DMEM/NUT-mix F-12) (HAM) provided by Gibco (cat no. 31330-38) containing 5% Serum/Fe supplemented with 1% non-essential amino acids. Cells were grown to near confluency.
(§2) The screening was performed using the assay as described in Citron et al (1997) Nature Medicine 3: 67. Briefly, cells were plated in a 96-well plate at about 10^5 cells/ml one day prior to addition of compounds. Compounds were added to the cells in Ultraculture (Lonza, BE12-725F) supplemented with 1% glutamine (Invitrogen, 25030-024) for 18 hours. The media were assayed by two sandwich ELISAs, for Aβ42 and Aβtotal. Toxicity of the compounds was assayed by WST-1 cell proliferation reagent (Roche, 1 644 807) according to the manufacturer's protocol.
To quantify the amount of Aβ42 in the cell supernatant, commercially available Enzyme-Linked-Immunosorbent-Assay (ELISA) kits were used (Innotest® β-Amyloid(1-42), Innogenetics N.V., Ghent, Belgium). The Aβ42 ELISA was performed essentially according to the manufacturer's protocol. Briefly, the standards (dilutions of synthetic A131-42) were prepared in polypropylene Eppendorf with final concentrations of 8000 down to […] (½ dilution step). Samples, standards and blanks (100 μl) were added to the anti-Aβ42-coated plate supplied with the kit (the capture antibody selectively recognizes the C-terminal end of the antigen). The plate was allowed to incubate 3 h at 25° C. in order to allow formation of the antibody-amyloid complex. Following this incubation and subsequent wash steps a selective anti-A13-antibody conjugate (biotinylated 3D6) was added and incubated for a minimum of 1 hour in order to allow formation of the antibody-Amyloid-antibody-complex. After incubation and appropriate wash steps, a Streptavidine-Peroxidase-Conjugate was added, followed 30 minutes later by an addition of 3,3′,5,5′-tetramethylbenzidine (TMB)/peroxide mixture, resulting in the conversion of the substrate into a coloured product. This reaction was stopped by the addition of sulfuric acid (0.9 N) and the colour intensity was measured by means of photometry with an ELISA-reader with a 450 nm filter.
(§3) To obtain the values reported in Table 3a, the sigmoidal dose response curves were analysed by computerised curve-fitting, with percent of inhibition plotted against compound concentration. A 4-parameter equation (model 205) in XLfit was used to determine the IC50. The top and the bottom of the curve were fixed to 100 and 0, respectively, and the hill slope was fixed to 1. The IC50 represents the concentration of a compound that is required for inhibiting a biological effect by 50% (Here, it is the concentration where Aβ peptide level is reduced by 50%).
For orientation: ELISA stands for enzyme-linked immunosorbent assay.

The subject of assay [2] is Aβtotal. Put plainly: Method 1: Aβtotal sandwich ELISA on media of SKNBE2 cells carrying APP 695 wild type. The following applies: SKNBE2 cells APP 695 wild type, 18 hours. On the procedure: as §1, §2
To quantify the amount of Aβtotal in the cell supernatant, samples and standards were added to a 6E10-coated plate. The plate was allowed to incubate overnight at 4° C. in order to allow formation of the antibody-amyloid complex. Following this incubation and subsequent wash steps a selective anti-AB-antibody conjugate (biotinylated 4G8) was added and incubated for a minimum of 1 hour in order to allow formation of the antibody-Amyloid-antibody-complex. After incubation and appropriate wash steps, a Streptavidine-Peroxidase-Conjugate was added, followed 30 minutes later by an addition of Quanta Blu fluorogenic peroxidase substrate according to the manufacturer's instructions (Pierce Corp., Rockford, Il).
as §3

For assay [3], the system named is Aβ42. Put plainly: Method 2: Aβ42 Alphalisa on supernatant of SKNBE2 cells carrying APP 695 wild type. As to conditions: SKNBE2 cells APP 695 wild type, overnight. On the procedure: (§4) Screening was carried out using SKNBE2 cells carrying the APP 695—wild type, grown in Dulbecco's Modified Eagle's Medium/Nutrient mixture F-12 (DMEM/NUT-mix F-12) (HAM) provided by Invitrogen (cat no. 10371-029) containing 5% Serum/Fe supplemented with 1% non-essential amino acids, 1-glutamine 2 mM, Hepes 15 mM, penicillin 50 U/ml (units/ml) en streptomycin 50 μg/ml. Cells were grown to near confluency.
(§5) The screening was performed using a modification of the assay as described in Citron et al (1997) Nature Medicine 3: 67. Briefly, cells were plated in a 384-well plate at 10^4 cells/well in Ultraculture (Lonza, BE12-725F) supplemented with 1% glutamine (Invitrogen, 25030-024), 1% non-essential amino acid (NEAA), penicillin 50 U/ml en streptomycin 50 μg/ml in the presence of test compound at different test concentrations. The cell/compound mixture was incubated overnight at 37° C., 5% CO2, The next day the media were assayed by two sandwich immuno-assays, for Aβ42 and Aβtotal.
(§6) Aβtotal and Aβ42 concentrations were quantified in the cell supernatant using the Aphalisa technology (Perkin Elmer). Alphalisa is a sandwich assay using biotinylated antibody attached to streptavidin coated donorbeads and antibody conjugated to acceptor beads. In the presence of antigen, the beads come into close proximity. The excitation of the donor beads provokes the release of singlet oxygen molecules that trigger a cascade of energy transfer in the acceptor beads, resulting in light emission. To quantify the amount of Aβ42 in the cell supernatant, monoclonal antibody specific to the C-terminus of Aβ42 (JRF/cAβ42/26) was coupled to the receptor beads and biotinylated antibody specific to the N-terminus of AB (JRF/AβN/25) was used to react with the donor beads. To quantify the amount of Aβtotal in the cell supernatant, monoclonal antibody specific to the N-terminus of AB (JRF/AβN/25) was coupled to the receptor beads and biotinylated antibody specific to the mid region of Aβ (biotinylated 4G8) was used to react with the donor beads.
(§7) To obtain the values reported in Table 3b, the data were calculated as percentage of the maximum amount of amyloid Beta 42 measured in the absence of the test compound. The sigmoidal dose response curves were analyzed using non-linear regression analysis with percentage of the control plotted against the log concentration of the compound. A 4-parameter equation was used to determine the IC50.
In general terms: Alpha assays give light when donor and acceptor beads are brought close together.

Assay [4] has as its system Aβtotal. Put plainly: Method 2: Aβtotal Alphalisa on supernatant of SKNBE2 cells carrying APP 695 wild type. As to conditions: SKNBE2 cells APP 695 wild type, overnight. The procedure: as §4, §5, §6, §7

Take `COc1cccc(-n2nc3c(Nc4ccc(-c5ocnc5C)c(OC)c4)cccc3c2C)c1` [Compound 39, N-[3-methoxy-4-(4-methyl-5-oxazolyl)phenyl]-2-(3-methoxyphenyl)-3-methyl-2H-indazol-7-amine .1.9HCl]: the IC50 is 29 nM in assay [1], above 3000 nM in assay [2], 30 nM in assay [3] and above 10000 nM in assay [4].
As to `COc1cc(Nc2cccc3cn(C)nc23)ccc1-n1cnc(C)c1` [Compound 9, N-[3-methoxy-4-(4-methyl-1H-imidazol-1-yl)phenyl]-2-methyl-2H-indazol-7-amine], the IC50 was 1470 nM in assay [1] (Homo sapiens), above 10000 nM in assay [2] (Homo sapiens), below 3000 nM in assay [3] (Homo sapiens) and above 3000 nM in assay [4] (Homo sapiens).
For the molecule `COc1cc(Nc2cccc3cn(C)nc23)ccc1-c1cnc(C)s1` [Compound 49, N-[3-methoxy-4-(2-methyl-5-thiazolyl)phenyl]-2-methyl-2H-indazol-7-amine], the IC50 in assay [3] (Homo sapiens) and in assay [4] (Homo sapiens) was above 3000 nM in each case.
Regarding `CCCCn1nc2c(Nc3ccc(-n4cnc(C)c4)c(OC)c3)cccc2c1C` [Compound 10, 2-butyl-N-[3-methoxy-4-(4-methyl-1H-imidazol-1-yl)phenyl]-3-methyl-2H-indazol-7-amine .2HCl], the IC50 in assay [1] is 99 nM; in assay [2] it was above 3000 nM; in assay [3], below 3000 nM; in assay [4], above 3000 nM.
Consider `COc1cccc(-n2nc3c(Nc4ccc(-n5cnc(C)n5)c(OC)c4)cccc3c2C)c1` [Compound 5, N-[3-methoxy-4-(3-methyl-1H-1,2,4-triazol-1-yl)phenyl]-2-(3-methoxyphenyl)-3-methyl-2H-indazol-7-amine .1.9HCl], for which the half-maximal inhibitory concentration (IC50) was 31 nM in assay [1] (Homo sapiens), above 3000 nM in assay [2] (Homo sapiens), 18 nM in assay [3] (Homo sapiens) and 8130 nM in assay [4] (Homo sapiens).
As to `COc1cc(Nc2cc(C(C)C)nc3cn(CC(F)(F)F)nc23)ccc1-n1cnc(C)n1` [Compound 56, N-[3-methoxy-4-(3-methyl-1H-1,2,4-triazol-1-yl)phenyl]-5-(1-methylethyl)-2-(2,2,2-trifluoroethyl)-2H-pyrazolo[4,3-b]pyridin-7-amine], the IC50 is 708 nM in assay [3] (Homo sapiens) and above 10000 nM in assay [4] (Homo sapiens).
For the molecule `CCCCn1cc2cccc(Nc3ccc(-n4cnc(C)c4)c(OC)c3)c2n1` [Compound 3, 2-butyl-N-[3-methoxy-4-(4-methyl-1H-imidazol-1-yl)phenyl]-2H-indazol-7-amine .2HCl], the IC50 was 113 nM in assay [1] (Homo sapiens), above 3000 nM in assay [2] (Homo sapiens), below 3000 nM in assay [3] (Homo sapiens) and above 3000 nM in assay [4] (Homo sapiens).
On to `COCCn1cc2cccc(Nc3ccc(-c4cnc(C)o4)cc3)c2n1` [Compound 27, 2-(2-methoxyethyl)-N-[4-(2-methyl-5-oxazolyl)phenyl]-2H-indazol-7-amine .1.5HCl .1.25H2O], for which the IC50 in assay [3] was above 3000 nM.
With `Cc1ncc(-c2ccc(Nc3cccc4cn(CC5CC5)nc34)cn2)o1` [Compound 43, 2-(cyclopropylmethyl)-N-[6-(2-methyl-5-oxazolyl)-3-pyridinyl]-2H-indazol-7-amine .2HCl], the midpoint of inhibition in assay [3], the IC50, lay at 1410 nM.
Consider `COc1cccc(-n2nc3c(Nc4ccc(-c5ccnn5C)cc4)cccc3c2C)c1` [Compound 53, 2-(3-methoxyphenyl)-3-methyl-N-[4-(1-methyl-1H-pyrazol-5-yl)phenyl]-2H-indazol-7-amine .2HCl .0.5H2O], for which the IC50 is 631 nM in assay [3] and above 10000 nM in assay [4].
Consider `CCCCn1cc2cc(CN)cc(Nc3ccc(-n4cnc(C)c4)c(OC)c3)c2n1` [Compound 12, 2-butyl-7-[[3-methoxy-4-(4-methyl-1H-imidazol-1-yl)phenyl]amino]-2H-indazole-5-methanamine .4HCl], for which the IC50 in assay [3] was above 3000 nM.
`COCCn1cc2cccc(Nc3ccc(-c4ocnc4C)c(OC)c3)c2n1` [Compound 36, 2-(2-methoxyethyl)-N-[3-methoxy-4-(4-methyl-5-oxazolyl)phenyl]-2H-indazol-7-amine .1.5HCl .0.18H2O] registered an IC50 in assay [3] above 3000 nM.
Turning to `Cc1ncc(-c2ccc(Nc3cccc4cn(C5CCC5)nc34)cc2)o1` [Compound 26, 2-cyclobutyl-N-[4-(2-methyl-5-oxazolyl)phenyl]-2H-indazol-7-amine .1.2HCl], the IC50 in assay [3] and in assay [4] was above 3000 nM each time.
In the case of `Cc1ncc(-c2ccc(Nc3cc(F)cc4c(C)n(-c5ccc(F)cc5)nc34)cn2)o1` [Compound 47, 5-fluoro-2-(4-fluorophenyl)-3-methyl-N-[6-(2-methyl-5-oxazolyl)-3-pyridinyl]-2H-indazol-7-amine], the IC50 in assay [3] (Homo sapiens) turned out to be 35 nM; in assay [4] (Homo sapiens), 6920 nM.
Turning to `CCOc1cc(C)c(-n2nc3c(Nc4ccc(-n5cnc(C)c5)c(OC)c4)cccc3c2C)cc1C(C)C` [Compound 14, 2-[4-ethoxy-2-methyl-5-(1-methylethyl)phenyl]-N-[3-methoxy-4-(4-methyl-1H-imidazol-1-yl)phenyl]-3-methyl-2H-indazol-7-amine], the IC50 in assay [1] (Homo sapiens) is 29 nM; in assay [3] (Homo sapiens), 20 nM; in assay [4] (Homo sapiens), 7080 nM.
`Cc1cn(-c2ccc(Nc3cncc4cn(CC(F)(F)F)nc34)cc2F)cn1` [Compound 55, N-[3-fluoro-4-(4-methyl-1H-imidazol-1-yl)phenyl]-2-(2,2,2-trifluoroethyl)-2H-pyrazolo[4,3-c]pyridin-7-amine]: the IC50 in assay [3] (Homo sapiens) was 603 nM; in assay [4] (Homo sapiens), above 10000 nM.
In the case of `COc1cc(Nc2cccc3cn(C)nc23)ccc1-n1cnc(C)n1` [Compound 17, N-[3-methoxy-4-(3-methyl-1H-1,2,4-triazol-1-yl)phenyl]-2-methyl-2H-indazol-7-amine], the 50% inhibitory concentration (IC50) in assay [3] (Homo sapiens) and in assay [4] (Homo sapiens) was above 3000 nM each time.
Regarding `COc1cc(Nc2cccc3c(C)n(-c4ccc(F)cc4F)nc23)ccc1-c1cnc(C)s1` [Compound 50, 2-(2,4-difluorophenyl)-N-[3-methoxy-4-(2-methyl-5-thiazolyl)phenyl]-3-methyl-2H-indazol-7-amine], the IC50 in assay [1] (Homo sapiens) was 865 nM; in assay [3] (Homo sapiens), 676 nM; in assay [4] (Homo sapiens), above 10000 nM.

These data come from patent US20120095036A1, “NOVEL SUBSTITUTED INDAZOLE AND AZA-INDAZOLE DERIVATIVES AS GAMMA SECRETASE MODULATORS” (priority 2009, published 2012).
